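All cell lines were grown in 96-well plates and treated with compound for 48 hours. At the TGI there is no net growth.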

The subject of the first experiment is HCT-15 colon. Nature of the experiment: NCI-60 cell line screen, 48 h.
As for `Nc1nc(Cl)c(N)c(NCC2(CO)CCCC2)n1`, the TGI is > 100 µM.

In turn, `CCOC(=O)C1(C/C=C/CBr)CCc2ccccc2C1=O` (stereo unspecified) registered a TGI of 47.5 µM.

`O=C(Oc1cccnc1)c1cc2cc(CCl)ccc2oc1=O` returned a TGI of 58.5 µM.

For the compound `O=C1c2cccc3cccc(c23)C2NCCCN12` (stereo unspecified), the TGI is > 100 µM.

Compound `CN(C)c1ccc(/C=N\NC(=O)Nc2cccc3ccccc23)cc1` showed a TGI of 7.23 µM.

As for `O=S1(=O)Cc2ccc3c4c2-c2c(ccc5ccc(c-4c25)CS(=O)(=O)C3)C1`, the TGI was > 100 µM.

For `Cc1cc(C)c2c(c1)C/C(=C\c1ccccc1C(=O)O)C2=O`, the TGI is > 100 µM.

Regarding `[N-]=[N+]=Nc1cc(=O)[nH]nc1-c1ccccc1`, the TGI is > 100 µM.

Take `Cc1nc2ccc(NC(=S)Nc3ccccc3)cc2c(=O)n1-c1ccccc1`: the TGI is > 100 µM.

In the case of `Cn1c(=O)oc2cc(C(O)CN3CCN(Cc4ccccn4)CC3)c(Cl)cc21` (stereo unspecified), the TGI is > 100 µM.

As to `O=c1cc(CO)oc(C(O)c2ccccc2)c1O` (stereo unspecified), the TGI is > 100 µM.

Another experiment relates to COLO 205 colon. Nature of the experiment: NCI-60 cell line screen, 48 h.
As to `Fc1ccc(C(=C2CCN(CCc3ccc4[nH]c(=S)[nH]c4c3)CC2)c2ccc(F)cc2)cc1`, the TGI amounted to 3.31 µM.

Turning to `Nc1nc(NCC2(CO)CC2)cc(=O)[nH]1`, the TGI was > 100 µM.

As for `Cc1ccc(-c2n[nH]c(=O)n2/N=C\c2ccc([N+](=O)[O-])cc2)cc1`, the TGI was > 100 µM.

For the compound `Cc1cc(C2CC(O)C(CO)O2)c(F)cc1F` (stereo unspecified), the TGI is > 100 µM.

Compound `CCOC(=O)C1(C/C=C/CBr)CCc2ccccc2C1=O` (stereo unspecified) showed a TGI of 42.6 µM.

With `O=C(Oc1cccnc1)c1cc2cc(CCl)ccc2oc1=O`, the TGI was 69.5 µM.

`O=C1c2cccc3cccc(c23)C2NCCCN12` (stereo unspecified): the TGI was > 100 µM.

On to `CN(C)c1ccc(/C=N\NC(=O)Nc2cccc3ccccc23)cc1`, for which the TGI was > 100 µM.

Regarding `[N-]=[N+]=Nc1cc(=O)[nH]nc1-c1ccccc1`, the TGI is > 100 µM.

For the compound `Cc1nc2ccc(NC(=S)Nc3ccccc3)cc2c(=O)n1-c1ccccc1`, the TGI is > 100 µM.

Consider `Cn1c(=O)oc2cc(C(O)CN3CCN(Cc4ccccn4)CC3)c(Cl)cc21` (stereo unspecified), for which the TGI was > 100 µM.

Regarding `O=c1cc(CO)oc(C(O)c2ccccc2)c1O` (stereo unspecified), the TGI is > 100 µM.

For the next experiment, the system named is ACHN renal. The experiment is described as follows: NCI-60 cell line screen, 48 h.
`O=C1c2cccc3cccc(c23)C(=O)N1CCCNCCCNCCCCNCCCNCCCN1C(=O)c2cccc3cccc(c23)C1=O` came in with a TGI of 15.3 µM.

`Fc1ccc(C(=C2CCN(CCc3ccc4[nH]c(=S)[nH]c4c3)CC2)c2ccc(F)cc2)cc1` returned a TGI of 24.1 µM.

As for `Nc1nc(NCC2(CO)CC2)cc(=O)[nH]1`, the TGI is > 100 µM.

Consider `Cc1ccc(-c2n[nH]c(=O)n2/N=C\c2ccc([N+](=O)[O-])cc2)cc1`, for which the TGI is > 100 µM.

On to `Cc1cc(C2CC(O)C(CO)O2)c(F)cc1F` (stereo unspecified), for which the TGI is > 100 µM.

Turning to `Nc1nc(Cl)c(N)c(NCC2(CO)CCCC2)n1`, the TGI is > 100 µM.

`CCOC(=O)C1(C/C=C/CBr)CCc2ccccc2C1=O` (stereo unspecified) came in with a TGI of 29.1 µM.

Consider `O=C(Oc1cccnc1)c1cc2cc(CCl)ccc2oc1=O`, for which the TGI was > 100 µM.

`O=C1c2cccc3cccc(c23)C2NCCCN12` (stereo unspecified): the TGI is > 100 µM.

As to `CN(C)c1ccc(/C=N\NC(=O)Nc2cccc3ccccc23)cc1`, the TGI was 38.5 µM.

Consider `O=S1(=O)Cc2ccc3c4c2-c2c(ccc5ccc(c-4c25)CS(=O)(=O)C3)C1`, for which the TGI is > 100 µM.

On to `Cc1cc(C)c2c(c1)C/C(=C\c1ccccc1C(=O)O)C2=O`, for which the TGI is > 100 µM.

Consider `[N-]=[N+]=Nc1cc(=O)[nH]nc1-c1ccccc1`, for which the TGI is > 100 µM.

Consider `Cc1nc2ccc(NC(=S)Nc3ccccc3)cc2c(=O)n1-c1ccccc1`, for which the TGI is > 100 µM.

In the case of `Cn1c(=O)oc2cc(C(O)CN3CCN(Cc4ccccn4)CC3)c(Cl)cc21` (stereo unspecified), the TGI was > 100 µM.

As for `O=c1cc(CO)oc(C(O)c2ccccc2)c1O` (stereo unspecified), the TGI was > 100 µM.

A further experiment concerns K-562 leukemia. The experiment is described as follows: NCI-60 cell line screen, 48 h.
`O=C1c2cccc3cccc(c23)C(=O)N1CCCNCCCNCCCCNCCCNCCCN1C(=O)c2cccc3cccc(c23)C1=O` came in with a TGI of 16.5 µM.

Consider `Fc1ccc(C(=C2CCN(CCc3ccc4[nH]c(=S)[nH]c4c3)CC2)c2ccc(F)cc2)cc1`, for which the TGI is > 100 µM.

Turning to `Nc1nc(NCC2(CO)CC2)cc(=O)[nH]1`, the TGI was > 100 µM.

Turning to `Cc1ccc(-c2n[nH]c(=O)n2/N=C\c2ccc([N+](=O)[O-])cc2)cc1`, the TGI was > 94.2 µM.

In the case of `Cc1cc(C2CC(O)C(CO)O2)c(F)cc1F` (stereo unspecified), the TGI was > 100 µM.

As for `Nc1nc(Cl)c(N)c(NCC2(CO)CCCC2)n1`, the TGI is > 100 µM.

As for `O=C(Oc1cccnc1)c1cc2cc(CCl)ccc2oc1=O`, the TGI came to 40.6 µM.

Regarding `O=C1c2cccc3cccc(c23)C2NCCCN12` (stereo unspecified), the TGI is > 100 µM.

With `O=S1(=O)Cc2ccc3c4c2-c2c(ccc5ccc(c-4c25)CS(=O)(=O)C3)C1`, the TGI is > 100 µM.

For `Cc1cc(C)c2c(c1)C/C(=C\c1ccccc1C(=O)O)C2=O`, the TGI is > 100 µM.

Regarding `[N-]=[N+]=Nc1cc(=O)[nH]nc1-c1ccccc1`, the TGI was > 100 µM.

With `Cc1nc2ccc(NC(=S)Nc3ccccc3)cc2c(=O)n1-c1ccccc1`, the TGI was > 100 µM.

In the case of `Cn1c(=O)oc2cc(C(O)CN3CCN(Cc4ccccn4)CC3)c(Cl)cc21` (stereo unspecified), the TGI is > 100 µM.

Another experiment deals with TK-10 renal. The experiment is described as follows: NCI-60 cell line screen, 48 h.
As to `O=C1c2cccc3cccc(c23)C(=O)N1CCCNCCCNCCCCNCCCNCCCN1C(=O)c2cccc3cccc(c23)C1=O`, the TGI worked out at 25 µM.

`Fc1ccc(C(=C2CCN(CCc3ccc4[nH]c(=S)[nH]c4c3)CC2)c2ccc(F)cc2)cc1` had a TGI of 4.74 µM.

As for `Cc1ccc(-c2n[nH]c(=O)n2/N=C\c2ccc([N+](=O)[O-])cc2)cc1`, the TGI is > 100 µM.

As to `Cc1cc(C2CC(O)C(CO)O2)c(F)cc1F` (stereo unspecified), the TGI is > 100 µM.

In the case of `Nc1nc(Cl)c(N)c(NCC2(CO)CCCC2)n1`, the TGI is > 100 µM.

Regarding `CCOC(=O)C1(C/C=C/CBr)CCc2ccccc2C1=O` (stereo unspecified), the TGI worked out at 35.2 µM.

Consider `O=C(Oc1cccnc1)c1cc2cc(CCl)ccc2oc1=O`, for which the TGI is 50.8 µM.

Take `O=C1c2cccc3cccc(c23)C2NCCCN12` (stereo unspecified): the TGI was > 100 µM.

Compound `CN(C)c1ccc(/C=N\NC(=O)Nc2cccc3ccccc23)cc1` had a TGI of 36.7 µM.

As for `O=S1(=O)Cc2ccc3c4c2-c2c(ccc5ccc(c-4c25)CS(=O)(=O)C3)C1`, the TGI was > 100 µM.

With `Cc1cc(C)c2c(c1)C/C(=C\c1ccccc1C(=O)O)C2=O`, the TGI is > 100 µM.

As for `[N-]=[N+]=Nc1cc(=O)[nH]nc1-c1ccccc1`, the TGI was > 100 µM.

For `Cc1nc2ccc(NC(=S)Nc3ccccc3)cc2c(=O)n1-c1ccccc1`, the TGI was > 100 µM.

As for `Cn1c(=O)oc2cc(C(O)CN3CCN(Cc4ccccn4)CC3)c(Cl)cc21` (stereo unspecified), the TGI is > 100 µM.

With `O=c1cc(CO)oc(C(O)c2ccccc2)c1O` (stereo unspecified), the TGI is > 100 µM.

In a further experiment the test system is LOX IMVI melanoma. Nature of the experiment: NCI-60 cell line screen, 48 h.
For the compound `O=C1c2cccc3cccc(c23)C(=O)N1CCCNCCCNCCCCNCCCNCCCN1C(=O)c2cccc3cccc(c23)C1=O`, the TGI is > 38.1 µM.

Consider `Fc1ccc(C(=C2CCN(CCc3ccc4[nH]c(=S)[nH]c4c3)CC2)c2ccc(F)cc2)cc1`, for which the TGI stood at 39.9 µM.

Regarding `Nc1nc(NCC2(CO)CC2)cc(=O)[nH]1`, the TGI is > 100 µM.

With `Cc1ccc(-c2n[nH]c(=O)n2/N=C\c2ccc([N+](=O)[O-])cc2)cc1`, the TGI is > 100 µM.

These data come from PubChem BioAssay (NCI).
